Where two headings read alike, the source gives them in different places.
Legend:
[1] = system: malignant melanoma cell lines A375, SK-MEL28, FM55P, FM55M2; test: MTT cell viability assay, four melanoma lines taken together; format: cell-based, human; conditions: for effect on melanoma cell viability (in words): four melanoma lines; for IC50: read-out: IC50 range depending on the melanoma cell line
Procedure: (§1) All tested cell lines—the HaCaT cell line model of human keratinocyte cells (density: 1 × 10^4 cells/mL) and four human malignant melanoma lines (density: 2–3 × 10^4 cells/mL, depending on the cell line—were plated on microtiter plates (NEST Biotechnology, Wuxi, China). After a day (24 h) of incubation, the medium was replaced with a fresh medium to which increasing concentrations of the tested substances were added. The experimental steps of the MTT assay were previously described. Each experiment in the MTT assay was performed in triplicate to ensure the repeatability and validity of the results.
(§2) Data were presented as means ± standard errors (SEMs).

[2] = system: normal human keratinocytes HaCaT; test: MTT cell viability assay, normal keratinocytes; format: cell-based; conditions: for IC50: Homo sapiens
Procedure: as §1, §2

[3] = system: human cervical cancer, human lung cancer, monkey kidney cells and mouse macrophages; design: method as in doi:10.1590/S0044-59672007000200015; conditions: 200 µg/mL (≈1.5 mM); cited from earlier work
[4] = system: liver cancer cell lines and mouse melanoma B16-F10; design: method as in PMID 23453306; conditions: authors' conversion of the μg/mL values; cited from earlier work
[5] = system: FM55P malignant melanoma cell line; test: MTT cell viability assay, FM55P; format: cell-based; conditions: Homo sapiens, 72 h
Procedure: as §1, §2

MCF-7 breast cancer line = system: MCF-7 breast cancer line; design: method as in PMID 32772589; conditions: cited from earlier work
MDA-MB-231 cells = system: MDA-MB-231 cells; design: method as in PMID 32772589; conditions: cited from earlier work
[6] = system: malignant melanoma cell lines A375, SK-MEL28, FM55P, FM55M2; test: LDH cytotoxicity assay, melanoma lines; conditions: 72 h
Procedure: Four malignant melanoma cell lines, FM55P, FM55M2 (ECACC, Public Health England, Porton Down, UK), A375 and SK-MEL28 (ATCC, Manassas, VA, USA) were used. The immortalized human normal keratinocyte (HaCaT; ATCC, Manassas, VA, USA) served as a reference cell line. Of note, the A375 cell line is the original and not a CRISPR-modified version of the cell line, and all the tested cell lines in this study have the BRAF V600E mutation. The experimental cell culture conditions were as follows: 37 °C in a humidified atmosphere of 95% air and 5% CO2. The culture media used were as follows: for A375—DMEM high glucose; for SK-MEL28—EMEM; and for FM55P and FM55M2—RPMI1640 (All from Sigma-Aldrich, St. Louis, MO, USA). Previous publications described in more detail the growth conditions of these cell line cultures.
Specified densities (as above) of all the studied melanoma and normal human cell line were plated on microtiter plates (NEST). […] The LDH test was carried out after 72 h of incubation with the tested terpenes according to the manufacturer’s instructions. A more detailed description of the steps of the LDH test was previously provided.
GraphPad Prism (version 8.0, San Diego, CA, USA) was used for statistical analysis of the data (from the MTT and LDH tests). The analyses were performed with a one-way ANOVA test followed by Tukey’s post hoc test. Data were presented as means ± standard errors (SEMs). The median inhibitory concentration (IC50) values for the tested terpenes were calculated automatically with a computer-assisted log-probit method using an MS Excel spreadsheet, as previously described.

[7] = system: SK-MEL28 malignant melanoma cell line; test: MTT cell viability assay, SK-MEL28; format: cell-based; conditions: Homo sapiens
Procedure: as §1, §2

[8] = system: A375 malignant melanoma cell line; test: MTT cell viability assay, A375; format: cell-based; conditions: Homo sapiens
Procedure: as §1, §2

[9] = system: FM55M2 malignant melanoma cell line; test: MTT cell viability assay, FM55M2; format: cell-based; conditions: Homo sapiens, 72 h
Procedure: as §1, §2

A549 line = system: A549 line; design: method as in PMID 31202132; conditions: cited from earlier work
[10] = system: mouse melanoma B16(F10) cells; conditions: B16F10; cited from earlier work
[11] = system: B16-F10 mouse melanoma cell lines; design: method as in PMID 22352891; conditions: B16-F10, MTT test, cited from earlier work
[12] = system: SW620 colon cancer cell line; design: method as in PMID 31323842; conditions: cited from earlier work
[13] = system: 4T1 breast cancer cell line; design: method as in PMID 32526880, PMID 30733560; conditions: cited from earlier work
[14] = system: A549 lung cancer cell line; design: method as in PMID 32420353; conditions: cited from earlier work
[15] = system: MDA MB-231 breast cancer cell line; design: method as in PMID 32526880, PMID 30733560; conditions: cited from earlier work
[16] = system: HT29 colon cancer cell line; design: method as in PMID 31323842; conditions: cited from earlier work
[17] = system: H1299 lung cancer cell line; design: method as in PMID 32420353; conditions: cited from earlier work
A431 skin cancer line = conditions: A431, MTT assay; cited from earlier work
[18] = system: colo-205 colon cancer cell line; conditions: cited from earlier work
[19] = system: Ishikawa cell line, of endometrial cancer; conditions: 24 h of incubation; cited from earlier work
[20] = range over the four human melanoma lines, MTT, 72 h
[21] = FM55P, MTT assay, mean ± SEM, read-out: IC50
[22] = SK-MEL-28, SK-MEL28, MTT assay, 72 h, mean ± SEM, read-out: IC50
[23] = A-375, A375, MTT assay, 72 h, mean ± SEM, read-out: IC50
[24] = FM55M2, MTT assay, mean ± SEM, read-out: IC50
[25] = HaCaT, MTT assay, 72 h, mean ± SEM, read-out: IC50
[26] = A549, authors' conversion, read-out: IC50

SMILES	effect on melanoma cell viability (in words) ([1]; MTT, 72 h)	IC50 range depending on the melanoma cell line [1, 20]	concentration significantly affecting viability of normal keratinocytes ([2]; HaCaT, MTT, 72 h) [µM]	IC50 [5, 21] [µM]	concentration with statistically significant cytotoxicity towards melanoma cells [6]	IC50 [7, 22] [µM]	IC50 [1, 20] [µM]	IC50 [8, 23] [µM]	IC50 [9, 24] [µM]	IC50 [2, 25] [µM]	effect on normal keratinocyte cells (in words) ([2]; HaCaT, MTT)	also measured
C=C(C)CCC[C@H](C)CCO [Rhodinol, rhodinol]	did not show any significant activity	could not be determined	≥ 4800	–	–	–	–	–	–	–	–	concentration significantly affecting viability of melanoma cell lines ([1]; MTT, 72 h): ≥ 4.8 mM
C=CC(=C)CCC=C(C)C [Myrcene, myrcene]	–	could not be determined	3000	–	–	–	–	–	–	–	–	cytotoxic activity (in words) [3]: no cytotoxic activity; concentration up to which no significant inhibition of melanoma line growth ([1]; MTT, 72 h): up to 5 mM; IC50 [4]: 70 to 90 µM
CC(C)=CCCC(C)CCO (stereo not drawn) [Citronellol, citronellol]	showed a significant anti-viability effect	–	1200 to 6000	2450 ± 380	above 4.2 mM	4810 ± 290	2170 to 4810	3630 ± 560	2170 ± 300	6270 ± 1150	–	IC50 (MCF-7 breast cancer line): 80 µM; IC50 (MDA-MB-231 cells): 35 µM
Cc1ccc(C(C)C)cc1O [Carvacrol, carvacrol]	showed a significant anti-viability effect	–	–	–	50 to 650 µM	–	–	–	–	–	did not negatively affect normal human keratinocyte cells	IC50 [5]: 60 ± 10 µM; IC50 ([7]; SK-MEL-28, 72 h): 60 ± 10 µM; IC50 ([1]; Homo sapiens, 72 h): 50 to 60 µM; selectivity index ([1]; SI = IC50 for HaCaT / IC50 for respective melanoma cell line, MTT): above 10; IC50 ([8]; A-375, 72 h): 60 µM; IC50 [9]: 50 µM; IC50 (A549 line; [26]): ~670 µM; IC50 (A549 line; A549): 100 µg/mL; concentration up to which HaCaT viability was not significantly affected ([2]; HaCaT, MTT, 72 h): ≤ 650 µM; IC50 ([2]; HaCaT, 72 h): > 650 µM; IC50 [10]: 120 ± 15 µM
Cc1ccc(C(C)C)c(O)c1 [Thymol, thymol]	showed a significant anti-viability effect	–	–	460 ± 50	above 0.03 mM	510 ± 30	460 to 530	480 ± 40	530 ± 50	> 1300	at high concentrations, it affects the viability of normal cell lines without cytotoxicity	concentration from which cytotoxicity was statistically significant ([6]; SK-MEL28 line): ≥ 30 µM; IC50 ([11]; authors' conversion, read-out: IC50): 400 µM; IC50 [11]: 60.09 µg/mL
CC(C)=CCC/C(C)=C/C=O [Citral, citral]	showed a significant anti-viability effect	–	–	90 ± 10	above 0.2 mM	100 ± 10	80 to 130	130 ± 10	80	290 ± 10	at high concentrations, it had a negative effect on normal keratinocyte cells	IC50 ([12]; SW620, authors' conversion, read-out: IC50): ~148 µM; IC50 ([12]; SW620): 22.50 ± 2.50 µg/mL; IC50 ([13]; 4T1, authors' conversion, read-out: IC50): ~140 µM; IC50 ([13]; 4T1): 21.4 ± 2.82 µg/mL; IC50 [14, 26]: ~11 µM; IC50 ([14]; A549): 1.73 ± 0.37 µg/mL; IC50 ([15]; MDA MB-231, authors' conversion, read-out: IC50): ~135 µM; IC50 ([15]; MDA MB-231): 20.5 ± 1.41 µg/mL; IC50 ([16]; HT29, authors' conversion, read-out: IC50): ~143 µM; IC50 ([16]; HT29): 21.77 ± 0.23 µg/mL; inhibition of HaCaT proliferation ([2]; 0.3 mM, MTT): up to 28%; inhibition of HaCaT proliferation ([2]; highest concentration of 0.4 mM, MTT): approximately 10%; IC50 ([17]; H1299, authors' conversion, read-out: IC50): ~26 µM; IC50 ([17]; H1299): 4.01 ± 0.30 µg/mL
CC(C)=CCC/C(C)=C/CO [Geraniol, geraniol]	showed a significant anti-viability effect	–	–	330 ± 20	–	440 ± 30	270 to 440	270 ± 30	420 ± 20	> 650	–	IC50 (A431 skin cancer line): 98 µM; IC50 [18]: 20 µM; IC50 [10]: 150 ± 19 µM; IC50 [19]: 260 µM
CC(C)=CCC/C(C)=C\CO [Nerol, nerol]	Its effect was not significant	could not be determined	–	–	–	–	–	–	–	–	–	concentration significantly affecting viability of melanoma cell lines ([1]; MTT, 72 h): 0.13 to 0.65 mM; concentration significantly affecting viability of normal keratinocytes ([2]; human, 72 h): 650 µM
